Measured values taken from the NIST ThermoML archive (doi:10.1021/acs.jced.7b01128).
“And” between values parts separate entries of the source, which are not always exact repeats. Equal entries are not always repeated.

What was measured:
[1] = refractive index (Na D-line) (dimensionless); conditions: 101.33 kPa, Liquid, Standard Abbe refractometry
[2] = Liquid, Ebulliometric method (Recirculating still)

C1COCCN1 [tetrahydro-1,4-oxazine]
Conditions	refractive index	vapor or sublimation pressure
[1], 293.15 K	1.455	–
[2], 343.15 K	–	13.06 kPa
[2], 353.15 K	–	19.73 kPa
[2], 363.15 K	–	28.93 kPa
[2], 372.15 K	–	39.99 kPa
[2], 373.15 K	–	41.32 kPa
[2], 380.75 K	–	53.33 kPa
[2], 383.15 K	–	57.86 kPa
[2], 387.55 K	–	66.66 kPa
[2], 393.35 K	–	79.99 kPa
[2], 393.45 K	–	79.99 kPa
[2], 401.15 K	–	101.05 kPa and 100.78 kPa

CCCCO [butan-1-ol]
Conditions	refractive index, 298.15 K	vapor or sublimation pressure, 353.15 K [kPa]	vapor or sublimation pressure, 363.15 K [kPa]	vapor or sublimation pressure, 366.75 K [kPa]	vapor or sublimation pressure, 373.15 K [kPa]	vapor or sublimation pressure, 379.55 K [kPa]	vapor or sublimation pressure, 383.15 K [kPa]	vapor or sublimation pressure, 384.35 K [kPa]	vapor or sublimation pressure, 390.75 K [kPa]
[1]	1.397	–	–	–	–	–	–	–	–
[2]	–	21.73	34.13	39.99	51.86	66.66	76.52	79.99	100.78

CC(C)CCO [3-methylbutan-1-ol]
Conditions	refractive index, 298.15 K	vapor or sublimation pressure, 343.15 K [kPa]	vapor or sublimation pressure, 386.05 K [kPa]	vapor or sublimation pressure, 392.15 K [kPa]	vapor or sublimation pressure, 397.15 K [kPa]	vapor or sublimation pressure, 403.95 K [kPa]
[1]	1.403	–	–	–	–	–
[2]	–	7.73	53.33	66.66	79.99	101.05
